Reference: patent US12643879B2, “Functionalized heterocyclic compounds as modulators of stimulator of interferon genes (STING)” (RYVU THERAPEUTICS S.A., priority 2019, dated 2026)
Like-named read-outs stand apart in the source and are kept apart here.

Assays:
human STING = human STING (Homo sapiens, UniProt Q86WV6); test: Fluorescence Thermal Shift assay (binding to STING); conditions: STING 0.1 mg/mL, SyproOrange, 25 to 99° C.
Description: Compounds, constructs and conjugates of the present invention were tested for binding to human STING in Fluorescence Thermal Shift assay. STING was preincubated with the compounds for 20 minutes in 50 mM Hepes, 150 mM NaCl, pH 7.5 in 15 or 16 μl volume, following by adding 4 μl of SyproOrange dye dilution (ThermoFisher, cat no. S-6651). Final STING concentration was 0.1 mg/mL. Thermal unfolding was performed in Real-Time PCR QuantStudio 6 Flex System (Applied Biosystems), from 25 to 99° C., with continuous ramp mode and ramp rate 0.033° C./s. The data were analyzed using Protein Thermal Shift Software (ThermoFisher).

[1] = system: interferon regulatory factor (IRF) pathway in THP-1 dual cells; test: THP-1 Dual reporter assay, IRF pathway (luciferase); format: cell-based; conditions: for EC50: Homo sapiens, THP1-Dual, read-out: THP1 Dual EC50 (μM) IRF
Method in brief: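 IRF output: ISRE-ISG54 luciferase in collected medium, luminescence measured immediately on reagent addition. NF-κB output: SEAP under NF-κB-element IFN-β promoter, detection medium 1 or 2 h at 37° C, absorbance 630 or 655 nm. Cells were stimulated with STING agonist for 18 h beforehand.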

[2] = system: NF-κB pathway in THP-1 dual cells; test: THP-1 Dual reporter assay, NF-κB pathway (SEAP); format: cell-based; conditions: for EC50: Homo sapiens, THP1-Dual, read-out: THP1 Dual EC50 (μM) NFkB
Method in brief: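 Luminescence (IRF arm, luciferase under ISG54 minimal promoter with five ISREs) and absorbance at 630 or 655 nm (NF-κB arm, SEAP under IFN-β minimal promoter with NF-κB elements) were measured in supernatants of THP-1 dual cells stimulated 18 h with compound.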

[3] = 18 h stimulation, absorbance at 630 or 655 nm

Sequence of human STING (Q86WV6 whole entry H232R): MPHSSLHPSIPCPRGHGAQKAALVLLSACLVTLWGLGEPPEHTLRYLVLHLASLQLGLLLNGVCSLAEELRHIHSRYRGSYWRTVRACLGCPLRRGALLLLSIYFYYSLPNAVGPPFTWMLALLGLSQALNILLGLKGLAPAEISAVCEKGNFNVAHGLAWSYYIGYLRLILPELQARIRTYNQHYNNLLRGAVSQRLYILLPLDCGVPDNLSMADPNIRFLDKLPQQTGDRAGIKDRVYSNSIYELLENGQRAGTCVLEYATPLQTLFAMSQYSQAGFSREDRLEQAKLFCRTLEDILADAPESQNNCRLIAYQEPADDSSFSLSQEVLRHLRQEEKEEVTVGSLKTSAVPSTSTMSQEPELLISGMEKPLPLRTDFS

SMILES	hSTING FTS binding assay (ΔT C. °) (human STING)	EC50 ([1]; 18 h stimulation, luminescence) [µM]	EC50 [2, 3] [µM]	THP1 Dual EC50 (μM) IRF ([1]; 18 h stimulation, luminescence)	THP1 Dual EC50 (μM) NFkB [2, 3]	EC50 ([1]; 18 h) [µM]	EC50 ([2]; 18 h) [µM]
Cc1cc(CN(Cc2cn(C)c3cc(N4CCC(C(=O)O)CC4)ccc3c2=O)[C@H]2CCCN(c3cccnc3)C2)ccn1 [Example 46, 1-[1-methyl-3-({[(2-methylpyridin-4-yl)methyl][(3S)-1-(pyridin-3-yl)piperidin-3-yl]amino}methyl)-4-oxo-1,4-dihydroquinolin-7-yl]piperidine-4-carboxylic acid]	++ (++=10<ΔTm <20° C.)					> 10	> 10
Cc1cc(CN(Cc2cn(C(C)C)c3cc(N4CC[C@@H](O)C4)ccc3c2=O)[C@H]2CCCN(c3ccnnc3)C2)ccn1 [Example 49, 7-[(3R)-3-hydroxypyrrolidin-1-yl]-3-({[(2-methylpyridin-4-yl)methyl][(3S)-1-(pyridazin-4-yl)piperidin-3-yl]amino}methyl)-1-(propan-2-yl)-1,4-dihydroquinolin-4-one]	+ (+=ΔTm ≤10° C.)	> 10	> 10				
CN[C@H]1CCN(c2cc3c(cc2F)c(=O)c(CN(Cc2ccnc(C)c2)[C@H]2CCCN(c4ccc(C)nc4)C2)cn3C2CC2)C1.Cl [Example 58, 1-cyclopropyl-6-fluoro-7-[(3S)-3-(methylamino)pyrrolidin-1-yl]-3-({[(3S)-1-(6-methylpyridin-3-yl)piperidin-3-yl][(2-methylpyridin-4-yl)methyl]amino}methyl)-1,4-dihydroquinolin-4-one hydrochloride]	+++ (+++=ΔTm ≥20° C.)	< 1	< 1				
Cc1ccc(N2CCC[C@H](N(Cc3ccnc(C)c3)Cc3cn(C4CC4)c4cc(N5CCCC(C(=O)O)C5)c(F)cc4c3=O)C2)cn1 (stereo partly drawn) [Example 66, 1-[1-cyclopropyl-6-fluoro-3-({[(3S)-1-(6-methylpyridin-3-yl)piperidin-3-yl][(2-methylpyridin-4-yl)methyl]amino}methyl)-4-oxo-1,4-dihydroquinolin-7-yl]piperidine-3-carboxylic acid]	+++ (+++=ΔTm ≥20° C.)	1 to 10	1 to 10				
Cc1ccc(N2CCC[C@H](N(Cc3ccnc(C)c3)Cc3cn(C4CC4)c4cc(N5CCC(C(=O)O)CC5)c(F)cc4c3=O)C2)cn1 [Example 67, 1-[1-cyclopropyl-6-fluoro-3-({[(3S)-1-(6-methylpyridin-3-yl)piperidin-3-yl][(2-methylpyridin-4-yl)methyl]amino}methyl)-4-oxo-1,4-dihydroquinolin-7-yl]piperidine-4-carboxylic acid]	+++ (+++=ΔTm ≥20° C.)	1 to 10	1 to 10				
Cc1ccc(N2CCC[C@H](N(Cc3ccnc(C)c3)Cc3cn(C4CC4)c4cc(N5CCC6NCCC6C5)c(F)cc4c3=O)C2)cn1 (stereo partly drawn) [Example 68, 1-cyclopropyl-6-fluoro-3-({[(3S)-1-(6-methylpyridin-3-yl)piperidin-3-yl][(2-methylpyridin-4-yl)methyl]amino}methyl)-7-{octahydro-1H-pyrrolo[3,2-c]pyridin-5-yl}-1,4-dihydroquinolin-4-one]	+++ (+++=ΔTm ≥20° C.)	< 1	< 1				
Cc1cc(CN(Cc2cn(C3CC3)c3cc(N4CC[C@@H](O)C4)c(F)cc3c2=O)[C@H]2CCCN(c3cccnc3)C2)ccn1 [Example 78, 1-Cyclopropyl-6-fluoro-7-[(3R)-3-hydroxypyrrolidin-1-yl]-3-({[(2-methylpyridin-4-yl)methyl][(3S)-1-(pyridin-3-yl)piperidin-3-yl]amino}methyl)-1,4-dihydroquinolin-4-one]	+++ (+++=ΔTm ≥20° C.)	< 1	< 1				
Cc1cnc(N2C[C@@H](F)C[C@H](N(Cc3ccnc(C)c3)Cc3cn(C4CC4)c4cc(N5CCC[C@H](O)C5)c(F)cc4c3=O)C2)cn1 [Example 82, 1-cyclopropyl-6-fluoro-3-({[(3S,5S)-5-fluoro-1-(5-methylpyrazin-2-yl)piperidin-3-yl][(2-methylpyridin-4-yl)methyl]amino}methyl)-7-[(3S)-3-hydroxypiperidin-1-yl]-1,4-dihydroquinolin-4-one]	++ (++=10<ΔTm <20° C.)	< 1	< 1				
Cc1cc(CN(Cc2cn(C3CC3)c3cc(N4CCC[C@H](O)C4)c(F)cc3c2=O)[C@H]2CCCN(c3cccnc3)C2)ccn1.Cl [Example 86, 1-cyclopropyl-6-fluoro-7-[(3S)-3-hydroxypiperidin-1-yl]-3-({[(2-methylpyridin-4-yl)methyl][(3S)-1-(pyridin-3-yl)piperidin-3-yl]amino}methyl)-1,4-dihydroquinolin-4-one hydrochloride]	+++ (+++=ΔTm ≥20° C.)	< 1	< 1				

More lines, main results first:

hSTING FTS binding assay (ΔT C. °) (human STING)	EC50 ([1]; 18 h stimulation, luminescence) [µM]	EC50 [2, 3] [µM]	THP1 Dual EC50 (μM) IRF ([1]; 18 h stimulation, luminescence)	THP1 Dual EC50 (μM) NFkB [2, 3]	SMILES	EC50 ([1]; 18 h) [µM]	EC50 ([2]; 18 h) [µM]
+++ (+++=ΔTm ≥20° C.)	< 1	< 1			Cc1ccc(N2CCC[C@H](N(Cc3ccnc(C)c3)Cc3cn(C4CC4)c4nc(N5CC[C@@H](O)C5)c(F)cc4c3=O)C2)cn1.Cl [Example 37, 1-cyclopropyl-6-fluoro-7-[(3R)-3-hydroxypyrrolidin-1-yl]-3-({[(3S)-1-(6-methylpyridin-3-yl)piperidin-3-yl][(2-methylpyridin-4-yl)methyl]amino}methyl)-1,4-dihydro-1,8-naphthyridin-4-one hydrochloride]		
+++ (+++=ΔTm ≥20° C.)			+ + +	+ + +	Cc1ccc(N2CCC[C@H](N(Cc3ccnc(C)c3)Cc3cn(C4CC4)c4cc(OCCO)c(F)cc4c3=O)C2)cn1 [Example 47, 1-Cyclopropyl-6-fluoro-7-(2-hydroxyethoxy)-3-({[(3S)-1-(6-methylpyridin-3-yl)piperidin-3-yl][(2-methylpyridin-4-yl)methyl]amino}methyl)-1,4-dihydroquinolin-4-one]		
+++ (+++=ΔTm ≥20° C.)	< 1	< 1			CN[C@@H]1CCN(c2cc3c(cc2F)c(=O)c(CN(Cc2ccnc(C)c2)[C@H]2CCCN(c4ccc(C)nc4)C2)cn3C2CC2)C1.Cl [Example 55, 1-Cyclopropyl-6-fluoro-7-[(3R)-3-(methylamino)pyrrolidin-1-yl]-3-({[(3S)-1-(6-methylpyridin-3-yl)piperidin-3-yl][(2-methylpyridin-4-yl)methyl]amino}methyl)-1,4-dihydroquinolin-4-one hydrochloride]		
+++ (+++=ΔTm ≥20° C.)	< 1	< 1			Cc1ccc(N2C[C@@H](F)C[C@H](N(Cc3ccnc(C)c3)Cc3cn(C4CC4)c4cc(OCCO)c(F)cc4c3=O)C2)cn1 [Example 75, 1-cyclopropyl-6-fluoro-3-({[(3S,5S)-5-fluoro-1-(6-methylpyridin-3-yl)piperidin-3-yl][(2-methylpyridin-4-yl)methyl]amino}methyl)-7-(2-hydroxyethoxy)-1,4-dihydroquinolin-4-one]		
